Reference: ChEMBL document CHEMBL1201862, “PubChem BioAssay data set” (2004)
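Test compounds were applied to cells in 96-well plates for 48 hours at 5 doses. Here, GI50 denotes the concentration required for 50% inhibition of growth.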 The source made the active and inactive calls. Cut-off read from the data, not from the text of the source: active = GI50 up to about 1.1 µM and inactive = higher.

Experiments:
Assay in all cases: inhibition of tumour cell growth, NCI panel, 48 h
[1] = system: DLD-1
[2] = system: DMS-114
[3] = system: DMS-273
[4] = system: HOP-18
[5] = system: KM-20L2
[6] = system: M19-MEL
[7] = system: XF498
[8] = system: RXF 631
[9] = system: SNB-78

Row | SMILES | GI50 [1] | GI50 [2] | GI50 [3] | GI50 [4] | GI50 [5] | GI50 [6] | GI50 [7] | GI50 [8] | GI50 [9]
1 | Cn1nc(-c2ccccc2)c(C(=O)/C=C/c2ccccc2)c(N2CCOCC2)c1=O | 20.4 µM (inactive) | 16.8 µM (inactive) | 19.8 µM (inactive) | 28.6 µM (inactive) | 18.1 µM (inactive) | 23.1 µM (inactive) | 12.7 µM (inactive) |  | 
2 | CCN(CC)CCCC(C)NC(=O)c1ccc2c(c1)C(=O)c1ccccc1C2=O (configuration not stated) | 17.5 µM (inactive) | 11.4 µM (inactive) | 21.9 µM (inactive) | > 85.5 µM (inactive) | 18.3 µM (inactive) | 16.7 µM (inactive) | 16.1 µM (inactive) | 24.1 µM (inactive) | 22.9 µM (inactive)
3 | CC(=O)Nc1ccc(C2CC(c3ccc([N+](=O)[O-])cc3)=Nc3ccccc3S2)cc1 (configuration not stated) | 13.3 µM (inactive) |  | 24.4 µM (inactive) | 24.3 µM (inactive) | 20.2 µM (inactive) | 18.8 µM (inactive) | 13.3 µM (inactive) | 22.9 µM (inactive) | 36.1 µM (inactive)
4 | Cc1ccccc1N1C(=O)/C(=C/c2ccc(N(CCC#N)CCC#N)cc2)N=C1c1cc([N+](=O)[O-])ccc1Cl | 79.1 µM (inactive) | > 100 µM (inactive) | 78.9 µM (inactive) | > 100 µM (inactive) | > 100 µM (inactive) |  |  | > 100 µM (inactive) | > 100 µM (inactive)
5 | Cc1ccc2[nH]c(=O)c(C(C#N)c3ccccc3)nc2c1 (configuration not stated) | 42.6 µM (inactive) |  | 44.5 µM (inactive) | 24.7 µM (inactive) | 37.2 µM (inactive) |  |  | 44.1 µM (inactive) | 28.1 µM (inactive)
6 | O=C1C2C3C=C4c5ccccc5N(c5ccccc5)C4(C2C(=O)N1c1ccc([N+](=O)[O-])cc1)[C@H]1C(=O)N(c2ccc([N+](=O)[O-])cc2)C(=O)[C@@H]31 (some centres not stated) | > 100 µM (inactive) | > 100 µM (inactive) | > 100 µM (inactive) | > 100 µM (inactive) | > 100 µM (inactive) | > 100 µM (inactive) |  |  | > 100 µM (inactive)
7 | CCOC(=O)NC(=O)c1cn(CCN2CCN(C(=O)NCCCCCCNC(=O)N3CCN(CCn4cc(C(=O)NC(=O)OCC)c(=O)n(CCN(CC)CC)c4=O)CC3)CC2)c(=O)n(CCC(CC)CC)c1=O | > 100 µM (inactive) | > 100 µM (inactive) | > 100 µM (inactive) | > 100 µM (inactive) | > 100 µM (inactive) | > 100 µM (inactive) |  |  | > 100 µM (inactive)
8 | CC(=O)c1cccc(NC(=O)C(=O)C(C2OC(=O)c3ccccc32)[N+](=O)[O-])c1 (configuration not stated) | > 100 µM (inactive) | > 100 µM (inactive) |  |  | > 100 µM (inactive) | > 100 µM (inactive) | > 100 µM (inactive) | > 100 µM (inactive) | > 100 µM (inactive)
9 | COC(=O)C1(C(=O)OC)CC2c3c(c4ccccc4n3C)CC(C1=O)N2Cc1ccccc1 (configuration not stated) | > 100 µM (inactive) | > 100 µM (inactive) | > 100 µM (inactive) |  | > 100 µM (inactive) | > 100 µM (inactive) | > 100 µM (inactive) | > 100 µM (inactive) | > 100 µM (inactive)
10 | COc1ccc(C2C(Cl)C(=O)N2NC(=O)c2ccc(N)cc2)cc1OC (configuration not stated) | 3.66 µM (inactive) |  | 2.72 µM (inactive) |  | 12.1 µM (inactive) | 4.95 µM (inactive) | 1 µM (active) |  | 63.7 µM (inactive)
11 | O=C(CSc1nnc(-c2ccc(/N=C\c3ccc(Cl)cc3)cc2)o1)Nc1cccc(Cl)c1 |  | > 100 µM (inactive) | > 100 µM (inactive) | > 100 µM (inactive) | > 100 µM (inactive) | > 100 µM (inactive) | > 100 µM (inactive) |  | > 100 µM (inactive)
12 | OC1c2ccccc2C2C(O)c3ccccc3C12 (configuration not stated) | > 100 µM (inactive) | > 100 µM (inactive) | > 100 µM (inactive) | > 100 µM (inactive) | > 100 µM (inactive) | > 100 µM (inactive) |  | > 100 µM (inactive) | 
13 | Cc1[nH]c2ccccc2c1C1Cc2ccccc2N1C(=O)/C=C/C(=O)O (configuration not stated) | > 100 µM (inactive) | > 100 µM (inactive) | > 100 µM (inactive) |  | > 100 µM (inactive) | > 100 µM (inactive) | 32.4 µM (inactive) | 18.4 µM (inactive) | > 100 µM (inactive)
14 | O=[N+]([O-])c1cc(Cl)ccc1OCc1ccccc1 | 82.2 µM (inactive) | 29.4 µM (inactive) | 54.6 µM (inactive) |  |  | 44.3 µM (inactive) | 20.4 µM (inactive) | > 100 µM (inactive) | 32.8 µM (inactive)
15 | S=C(Nc1ccccc1)N(/N=C/C=C/c1ccccc1)c1nnc(-c2ccccc2)c(-c2ccccc2)n1 | 76.4 µM (inactive) | 26.4 µM (inactive) | 45.5 µM (inactive) |  | > 100 µM (inactive) | 64.9 µM (inactive) | 61 µM (inactive) | 80.7 µM (inactive) | > 100 µM (inactive)
16 | Cc1ccc(NC(=O)CC(=O)n2nc(C)c(/N=N/c3ccccc3C(=O)O)c2C)cc1 | > 100 µM (inactive) | > 100 µM (inactive) | > 100 µM (inactive) |  | > 100 µM (inactive) | > 100 µM (inactive) | > 100 µM (inactive) | > 100 µM (inactive) | > 100 µM (inactive)
17 | OCC(O)C(O)C(O)C1SC(c2ccccc2)=NN1c1ccccc1 (configuration not stated) | > 100 µM (inactive) | > 84.7 µM (inactive) | > 76.6 µM (inactive) | 51.8 µM (inactive) | > 100 µM (inactive) | > 100 µM (inactive) | 30.1 µM (inactive) | 49.3 µM (inactive) | 44.4 µM (inactive)
18 | O=C(O)C(=O)/C=C\c1ccc(Cl)cc1 | > 100 µM (inactive) | 84.1 µM (inactive) | > 100 µM (inactive) | > 100 µM (inactive) | > 100 µM (inactive) | > 100 µM (inactive) | > 100 µM (inactive) |  | > 100 µM (inactive)
19 | CCC1(N=[N+]=[N-])C(=O)c2ccccc2N(c2ccccc2)C1=O (configuration not stated) | > 100 µM (inactive) | > 100 µM (inactive) | > 100 µM (inactive) | > 100 µM (inactive) | > 100 µM (inactive) | > 100 µM (inactive) | > 100 µM (inactive) |  | > 100 µM (inactive)
